Some test systems named below: NCI-H23; M14; A498; BT-549; NCI/ADR-RES; NCI-H460; CAKI-1; 786-0; HCT-15; NCI-H226; SK-MEL-28; UACC-62; MOLT-4; CCRF-CEM; SNB-75; HT-29; IGROV-1; RPMI-8226; A549; NCI-H522.
Common to all, as to assay: NCI tumour cell line growth inhibition, 48 h

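These data come from cells grown in 96-well plates and exposed to compound for 48 hours at five concentrations. GI50 marks 50% less growth.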 Calls of active or inactive are those of the source. Cut-off read from the data, not from the text of the source: active = GI50 up to about 1.1 µM and inactive = higher.

For the compound `O=C(NCCN1CCOCC1)c1ccc(I)cc1`, the GI50 with NCI-H23, with M14, with A498, in the test on BT-549, in the test on NCI/ADR-RES and in the test on NCI-H460 was > 100 µM (inactive) each time. Moreover, the GI50 with CAKI-1 was > 100 µM (inactive); in the test with 786-0, > 100 µM (inactive); in the test on HCT-15, greater than 100 µM; in the test on NCI-H226, > 100 µM (inactive); in the test with SK-MEL-28, > 100 µM (inactive); with UACC-62 it was > 100 µM (inactive). For the same compound, the GI50 in the test with MOLT-4, in the test with CCRF-CEM, with SNB-75, in the test with HT-29, in the test on IGROV-1 and in the test on RPMI-8226 was > 100 µM (inactive) in each case. In addition, the GI50 in the test with A549 was > 100 µM (inactive).
As to `CCOC(=O)C1C(=O)CC(C)(O)C(C(=O)OCC)C1c1ccc(O)c(OC)c1` (stereo not drawn), the GI50 in the test with NCI-H23, in the test on NCI-H522, in the test on A498, in the test on BT-549, with NCI/ADR-RES and in the test on NCI-H460 was > 100 µM (inactive) each time. Moreover, the GI50 was > 100 µM (inactive) with CAKI-1; > 100 µM (inactive) in the test on 786-0; greater than 100 µM in the test on HCT-15; > 100 µM (inactive) in the test with NCI-H226; > 100 µM (inactive) in the test with SK-MEL-28; > 100 µM (inactive) in the test on UACC-62. The GI50 in the test with MOLT-4, in the test with CCRF-CEM, with SNB-75, in the test with HT-29, in the test on IGROV-1 and in the test with A549 was > 100 µM (inactive) in each case.
For the compound `Cc1cc2c(cc1C)C(=O)/C(=N/Nc1ccc(F)cc1)CCO2`, the GI50 in the test with NCI-H23 is > 100 µM (inactive); with NCI-H522, > 100 µM (inactive); with M14 it was 87.5 µM (inactive); in the test on A498, > 100 µM (inactive); in the test with BT-549 it was > 100 µM (inactive); in the test on NCI/ADR-RES, > 100 µM (inactive). Besides, the GI50 in the test with NCI-H460 was > 100 µM (inactive); in the test on CAKI-1, > 100 µM (inactive); with 786-0 it was > 100 µM (inactive); in the test with HCT-15, greater than 100 µM; with NCI-H226, > 100 µM (inactive); in the test with SK-MEL-28 it was > 100 µM (inactive). In addition, the GI50 is > 100 µM (inactive) in the test with UACC-62; > 100 µM (inactive) in the test with MOLT-4; > 100 µM (inactive) in the test on CCRF-CEM; 24.6 µM (inactive) with HT-29; > 100 µM (inactive) in the test on IGROV-1; > 100 µM (inactive) with RPMI-8226. Also, the GI50 in the test on A549 is > 100 µM (inactive).
As for `CN(C)c1ccc(/C=C/c2ccnc3ccccc23)cc1`, the GI50 is 39.4 µM (inactive) in the test with NCI-H23; 65.8 µM (inactive) in the test with M14; > 100 µM (inactive) with A498; 18.2 µM (inactive) with BT-549; 64.3 µM (inactive) with NCI/ADR-RES; 47.9 µM (inactive) in the test on NCI-H460. The GI50 was > 100 µM (inactive) with CAKI-1; 89.7 µM (inactive) in the test with 786-0; 61.1 µM in the test on HCT-15; 72.6 µM (inactive) in the test on SK-MEL-28; 43.1 µM (inactive) in the test on UACC-62; 49.5 µM (inactive) in the test on CCRF-CEM. Further, the GI50 in the test on SNB-75 is 28.8 µM (inactive); with HT-29 it was 25.3 µM (inactive); with IGROV-1, > 100 µM (inactive); in the test with RPMI-8226, 51.1 µM (inactive); in the test on A549, 61.4 µM (inactive).
For the compound `CCOC(=O)CC(=O)Nc1c(C(=O)OCC)sc2nc(SC)nc(Nc3ccc(OC)c(OC)c3)c12`, the GI50 with NCI-H23 is 19.1 µM (inactive); with NCI-H522, 13.6 µM (inactive); with M14, > 100 µM (inactive); with A498, 28.9 µM (inactive); with BT-549, 27.5 µM (inactive); in the test with NCI/ADR-RES it was 8.77 µM (inactive). Also, the GI50 is 64 µM (inactive) with CAKI-1; 6.22 µM (inactive) in the test with 786-0; 39.9 µM with HCT-15; 75.2 µM (inactive) in the test on NCI-H226; > 100 µM (inactive) in the test with SK-MEL-28; 24.6 µM (inactive) in the test with UACC-62. For the same compound, the GI50 in the test on CCRF-CEM was > 100 µM (inactive); with SNB-75, 1.99 µM (inactive); in the test with HT-29, 60.1 µM (inactive); in the test on IGROV-1, 28.7 µM (inactive); in the test on A549, 0.36 µM (active).
Take `O=[N+]([O-])c1ccc(/C=N/CC2CCCN3CCCCC23)cc1` (stereo not drawn): the GI50 is > 100 µM (inactive) in the test on NCI-H23; > 100 µM (inactive) in the test on NCI-H522; 55 µM (inactive) in the test with M14; > 100 µM (inactive) with A498; > 100 µM (inactive) in the test on BT-549; > 100 µM (inactive) in the test on NCI/ADR-RES. The GI50 was > 100 µM (inactive) with NCI-H460; > 100 µM (inactive) in the test on CAKI-1; 22.8 µM (inactive) in the test with 786-0; 42.7 µM in the test on HCT-15; > 100 µM (inactive) in the test on SK-MEL-28; > 100 µM (inactive) in the test with UACC-62. The GI50 was 22.9 µM (inactive) in the test with MOLT-4; 40.8 µM (inactive) in the test on CCRF-CEM; 31.6 µM (inactive) in the test on SNB-75; 16.9 µM (inactive) with HT-29; > 100 µM (inactive) with IGROV-1; 17.3 µM (inactive) with RPMI-8226. Further, the GI50 in the test with A549 was 36.2 µM (inactive).
Regarding `N#CC(C#N)/N=N/c1ccc(-c2nc3ccccc3s2)cc1`, the GI50 was 2.93 µM (inactive) in the test with NCI-H23; 2.65 µM (inactive) in the test with NCI-H522; 8.73 µM (inactive) in the test with M14; 11.1 µM (inactive) in the test with A498; 5.19 µM (inactive) in the test with BT-549; 3.54 µM (inactive) in the test on NCI/ADR-RES. Besides, the GI50 is 2.81 µM (inactive) in the test with CAKI-1; 8.36 µM (inactive) in the test with 786-0; 3.59 µM with HCT-15; 10.4 µM (inactive) in the test with SK-MEL-28; 1.33 µM (inactive) with MOLT-4; 25.9 µM (inactive) in the test on SNB-75. Besides, the results for the GI50 with HT-29, with IGROV-1 and with RPMI-8226 were 6.64 µM (inactive), 6 µM (inactive) and 1.51 µM (inactive), respectively.
On to `COc1ccc(/C=N/n2c(Cc3ccc(Cl)cc3)n[nH]c2=O)cc1`, for which the GI50 in the test on NCI-H23 was 22 µM (inactive); in the test on M14, 45.7 µM (inactive); in the test with A498, 39.3 µM (inactive); in the test with BT-549 it was 32.4 µM (inactive); in the test on NCI/ADR-RES, 32.8 µM (inactive); in the test with NCI-H460 it was > 100 µM (inactive). For the same compound, the GI50 was 30.8 µM (inactive) in the test on CAKI-1; 17.7 µM (inactive) with 786-0; 38 µM in the test on HCT-15; 36.2 µM (inactive) with NCI-H226; > 100 µM (inactive) in the test with SK-MEL-28; 52.2 µM (inactive) in the test on UACC-62. Besides, the GI50 in the test on MOLT-4 was > 100 µM (inactive); in the test with CCRF-CEM, > 100 µM (inactive); with SNB-75, 16.6 µM (inactive); in the test with HT-29 it was 13.6 µM (inactive); in the test on IGROV-1, 16 µM (inactive); with RPMI-8226, > 100 µM (inactive). Besides, the GI50 in the test on A549 is 43.6 µM (inactive).
